Here are results for 9 compounds from PMC9020739, “Identification of a two-component regulatory system involved in antimicrobial peptide resistance in Streptococcus pneumoniae” (PLoS Pathogens, 2022).

Experiment [1] deals with S. pneumoniae R6 ΔbceAB/tcs01. Type of experiment: cell-based, Streptococcus pneumoniae. The following applies: R6 strain; 2-fold broth dilution, Todd-Hewitt medium, 37°C, 15 h; two to four biological replicates, each technical duplicates. The procedure: (§1) The MIC of various antimicrobial peptides for R6, R800 and D39 strains was determined by classical 2-fold broth dilution method. Cells were first grown in Todd-Hewitt medium at 37°C without agitation and in anaerobic conditions until the absorbance reaches approximatively 0.3. Complementation strains were grown with 0.5 μM ComS inducer until the appropriate OD. Cells were then diluted at final OD600nm = 0.002 in 96-well plates containing 300 μL of Todd-Hewitt medium (and 2 μM ComS inducer for the complementation strains) with serial dilutions of antimicrobial peptides. Pneumococcal growth was monitored by a microplate reader (TECAN) at 37°C without agitation. The absorbance was followed at 600 nm every 15 min for 15 h.
(Broth dilution looks for growth in wells or tubes with falling amounts of substance.)

Experiment [2] has as its system S. pneumoniae R6 Δtcs01. The experiment is classed as cell-based, Streptococcus pneumoniae. Conditions: R6 strain; 2-fold broth dilution, Todd-Hewitt medium, 37°C, 15 h; two to four biological replicates, each technical duplicates. The procedure:
as §1

The subject of experiment [3] is S. pneumoniae R6 ΔbceAB. Type of experiment: cell-based, Streptococcus pneumoniae. The following applies: R6 strain; 2-fold broth dilution, Todd-Hewitt medium, 37°C, 15 h; two to four biological replicates, each technical duplicates. As for the experimental part:
as §1

In experiment [4] the test system is S. pneumoniae R6 WT. The experiment is classed as cell-based, Streptococcus pneumoniae. The following applies: R6 strain; for Minimum Inhibitory Concentration, WT: 2-fold broth dilution, Todd-Hewitt medium, 96-well plates, start OD600 0.002, 37°C, A600 followed 15 h, two to four biological replicates, each technical duplicates; for Fold sensitivity displayed by the KO strains: KO strains versus WT MIC. As for the experimental part: as §1

For experiment [5], the system named is S. pneumoniae R800 ΔbceAB-Δhk01-PcomX-hk01. The experiment is classed as cell-based, Streptococcus pneumoniae. The following applies: R800 complementation strain, 2 μM ComS inducer; 2-fold broth dilution, Todd-Hewitt medium, 37°C, 15 h; at least biological triplicates, each technical duplicates. The procedure: as §1
In experiment [6] the test system is S. pneumoniae R800 ΔbceAB. Type of experiment: cell-based, Streptococcus pneumoniae. The following applies: R800 strain; 2-fold broth dilution, Todd-Hewitt medium, 37°C, 15 h; at least biological triplicates, each technical duplicates. As for the experimental part:
as §1

The test system of experiment [7] is S. pneumoniae D39 Δtcs01. Type of experiment: cell-based, Streptococcus pneumoniae. Conditions: D39 strain; 2-fold broth dilution, Todd-Hewitt medium, 37°C, 15 h; two to four biological replicates, each technical duplicates. The procedure: as §1
The test system of experiment [8] is S. pneumoniae R800 Δhk01-PcomX-hk01. Type of experiment: cell-based, Streptococcus pneumoniae. The following applies: R800 complementation strain, 2 μM ComS inducer; 2-fold broth dilution, Todd-Hewitt medium, 37°C, 15 h; at least biological triplicates, each technical duplicates. The procedure: as §1
Experiment [9] has as its system S. pneumoniae R800 Δhk01. The experiment is classed as cell-based, Streptococcus pneumoniae. Conditions: R800 strain; 2-fold broth dilution, Todd-Hewitt medium, 37°C, 15 h; at least biological triplicates, each technical duplicates. As for the experimental part: as §1
The subject of experiment [10] is S. pneumoniae D39 ΔbceAB/tcs01. Type of experiment: cell-based, Streptococcus pneumoniae. Conditions: D39 strain; 2-fold broth dilution, Todd-Hewitt medium, 37°C, 15 h; two to four biological replicates, each technical duplicates. As for the experimental part:
as §1

Experiment [11] has as its system S. pneumoniae R800 WT. The experiment is classed as cell-based, Streptococcus pneumoniae. Conditions: R800 strain; 2-fold broth dilution, Todd-Hewitt medium, 37°C, 15 h; at least biological triplicates, each technical duplicates. As for the experimental part: as §1
Experiment [12] deals with S. pneumoniae R800 bceAB-gfp. Type of experiment: cell-based, Streptococcus pneumoniae. Conditions: R800 strain; 2-fold broth dilution, Todd-Hewitt medium, 37°C, 15 h; at least biological triplicates, each technical duplicates. As for the experimental part: as §1
For experiment [13], the system named is S. pneumoniae D39 ΔbceAB. The experiment is classed as cell-based, Streptococcus pneumoniae. Conditions: D39 strain; 2-fold broth dilution, Todd-Hewitt medium, 37°C, 15 h; two to four biological replicates, each technical duplicates. The procedure: as §1
In experiment [14] the test system is S. pneumoniae D39 WT. Type of experiment: cell-based, Streptococcus pneumoniae. The following applies: D39 strain; for Minimum Inhibitory Concentration, WT: 2-fold broth dilution, Todd-Hewitt medium, 37°C, 15 h, two to four biological replicates, each technical duplicates; for Fold sensitivity diplayed by the KO strains: KO strains versus WT MIC. As for the experimental part:
as §1

Experiment [15] has as its target BceAB transporter from S. pneumoniae (Streptococcus pneumoniae, UniProt A0A0H2ZN40). The experiment is classed as biochemical. The following applies: for nH (positive cooperativity): ATPase/GTPase activity as a function of nucleotide concentration, fitted with positive cooperativity, proteoliposomes. The procedure: E. coli BL21(DE3) cells were transformed with pRSF-Duet1-BceAB WT, K48A or E170Q and selected on LB-agar plates containing 50 μg/mL kanamycin. One colony was inoculated into in 2L-baffled flasks containing 500 mL of 2YT medium and 50 μg/mL kanamycin and grown at 37°C, 180 rpm to OD600 of 0.6. Protein expression was induced by adding IPTG to a final concentration of 1 mM. Induction was performed overnight at 25°C and cells were harvested by centrifugation at 7,000 g for 20 min.
Cells were resuspended in buffer A (HEPES-NaOH 100 mM pH 8.0, NaCl 150 mM) and lysed by passaging them three times through a cell disruptor (Microfluidizer, Microfluidics) at 18,000 psi (or 1,24 x 108 Pa). Undisrupted cells and cell debris were removed by centrifugation at 15,000 x g for 30 min at 4°C. Membranes were harvested from the supernatant after ultracentrifugation at 150,000 x g for 1 h at 4°C. Membranes were resuspended in 20 mL of buffer A and centrifuged once again at 150,000 x g for 1 h at 4°C. Membrane pellets were homogenized in buffer HEPES-NaOH 100 mM pH 8.0, NaCl 150 mM and 20% glycerol, and stored at -80°C.
For the purification of BceAB, membranes from 0,5 L cell culture were diluted in buffer B (100 mM d’HEPES-NaOH pH 8, 150 mM NaCl, 10% glycerol) to a protein concentration of 4 mg/mL and solubilized with 0.5% (w/v) LMNG for 2 h at 4°C. After ultracentrifugation at 150,000 x g for 1 h at 4°C, the supernatant containing solubilized proteins was diluted four times using buffer B and loaded on Ni^2+-charged immobilized metal-ion affinity chromatography (IMAC) column (1 mL HisTrap HP, Cytiva). The column was washed with 10 mL of buffer B containing 0.005% (w/v) LMNG and 20 mM of imidazole. The column was further washed with the same buffer until OD280nm reached basal levels. BceAB was eluted by buffer B containing 0.005% (w/v) LMNG and an imidazole gradient from 20 to 500 mM of imidazole. Purified BceAB was dialyzed into buffer B containing 0.005% (w/v) LMNG and stored at -80°C.
The proteoliposomes were prepared as previously described for the transporter BmrA [50]. Proteoliposomes were loaded on sucrose gradient with different layers of 400 μL of 50 mM HEPES-KOH pH 8.0 buffer containing 30, 20, 15 or 10% of sucrose. One mL of proteoliposomes was loaded on the top of the sucrose gradient and ultra-centrifuged at 200,000 x g for 12 h at 4°C. Proteoliposomes were typically collected from the 15% layer and were loaded on SDS-PAGE to analyze and quantify the presence of BceAB by using a standard-curve of purified BceAB and ImageJ.
These activities were performed as previously described.

Where a SMILES comes first, the peptide text is derived from it. Bridges are numbered along the chain shown (N, C = ends). [ ]: non-standard residue; d: D form. The star is where a group is joined. X1 = CC[C@H](C)CCCCC(=O)*; Dab = NCC[C@H](N)C(=O)O

On to `CC[C@H](C)CCCCC(=O)N[C@@H](CCN)C(=O)N[C@H](C(=O)N[C@@H](CCN)C(=O)N[C@H]1CCNC(=O)[C@H]([C@@H](C)O)NC(=O)[C@H](CCN)NC(=O)[C@H](CCN)NC(=O)[C@H](CC(C)C)NC(=O)[C@@H](CC(C)C)NC(=O)[C@H](CCN)NC1=O)[C@@H](C)O` [colistin] (X1-[Dab]T[Dab][Dab][Dab][dL]L[Dab][Dab]T; lactam 4-C (inferred); N-terminus assumed), for which the “Minimum Inhibitory Concentration, ΔbceAB/tcs01” value in experiment [1] is 256 µg/mL. Further, the “Minimum Inhibitory Concentration, Δtcs01” value in [2] worked out at 256 µg/mL. Also, in experiment [3], the “Minimum Inhibitory Concentration, ΔbceAB” value came out at 256 µg/mL. In addition, in experiment [4], the “Minimum Inhibitory Concentration, WT” value came out at 256 µg/mL and the “Fold sensitivity displayed by the KO strains” value (“Fold sensitivity displayed” below) worked out at 1.

Take `CC[C@H](C)[C@H](N)C(=O)N[C@@H](CC(N)=O)C(=O)N[C@@H](CC(C)C)C(=O)N[C@@H](CCCCN)C(=O)N[C@@H](C)C(=O)N[C@@H](CC(C)C)C(=O)N[C@@H](C)C(=O)N[C@@H](C)C(=O)N[C@@H](CC(C)C)C(=O)N[C@@H](C)C(=O)N[C@@H](CCCCN)C(=O)N[C@@H](CCCCN)C(=O)N[C@H](C(=O)N[C@@H](CC(C)C)C(N)=O)[C@@H](C)CC` [mastoporan]: the “Fold sensitivity displayed” value in [4] is recorded as 1.

gramicidin: in experiment [1], the “Minimum Inhibitory Concentration, ΔbceAB/tcs01” value was found to be 0.016 µg/mL. Besides, in experiment [2], the “Minimum Inhibitory Concentration, Δtcs01” value was determined as 0.016 µg/mL. In [3], the “Minimum Inhibitory Concentration, ΔbceAB” value came out at 0.016 µg/mL. Besides, in experiment [4], the “Minimum Inhibitory Concentration, WT” value amounted to 0.016 µg/mL and the “Fold sensitivity displayed” value is given as 1.

Regarding ramoplanin, in experiment [5], the “MIC, ΔbceAB-Δhk01-PcomX-hk01” value was 0.02 µg/mL. Also, the “MIC, ΔbceAB” value in [6] is 0.02 µg/mL. The “Minimum Inhibitory Concentration, Δtcs01” value worked out at 0.03 µg/mL in experiment [7] and 0.02 µg/mL in [2]. Further, the “MIC, Δhk01-PcomX-hk01” value in experiment [8] is 0.02 µg/mL. Besides, in experiment [9], the “MIC, Δhk01” value was determined as 0.02 µg/mL. Also, the entries for the “Minimum Inhibitory Concentration, ΔbceAB/tcs01” value in experiment [1] and in experiment [10] were 0.02 µg/mL and 0.03 µg/mL, respectively. Besides, the “MIC, WT” value in experiment [11] is 0.02 µg/mL. For the same compound, the “MIC, bceAB-gfp” value in [12] was 0.02 µg/mL. Besides, the “Minimum Inhibitory Concentration, ΔbceAB” value was determined as 0.02 µg/mL in experiment [3] and 0.03 µg/mL in experiment [13]. The “Minimum Inhibitory Concentration, WT” value in experiment [4] came to 0.02 µg/mL; in experiment [14] it was 0.03 µg/mL. Moreover, the “Fold sensitivity displayed” value in experiment [4] was 1. Further, in experiment [14], the “Fold sensitivity diplayed by the KO strains” value is given as 1. In addition, the “Effect on ATPase activity of BceAB” value in experiment [15] (BceAB proteoliposomes, Fig 7B, triplicates, representative of at least two experiments) was “clear inhibitory effect”.

Consider Planosporicin [Planosporicin (NAI-97)], for which the “Minimum Inhibitory Concentration, ΔbceAB/tcs01” value in experiment [1] is 2 µg/mL. Besides, the “Minimum Inhibitory Concentration, Δtcs01” value in experiment [2] amounted to 2 µg/mL. In [3], the “Minimum Inhibitory Concentration, ΔbceAB” value came to 2 µg/mL. Moreover, in [4], the “Minimum Inhibitory Concentration, WT” value stood at 16 µg/mL and the “Fold sensitivity displayed” value was 8.

Regarding “Microbisporicin [Microbisporicin (NAI-107)]”, the “Minimum Inhibitory Concentration, ΔbceAB/tcs01” value in experiment [1] came out at 0.008 µg/mL. Besides, the “Minimum Inhibitory Concentration, Δtcs01” value in experiment [2] amounted to 0.008 µg/mL. Besides, the “Minimum Inhibitory Concentration, ΔbceAB” value in experiment [3] is 0.008 µg/mL. For the same compound, in experiment [4], the “Minimum Inhibitory Concentration, WT” value worked out at 0.032 µg/mL and the “Fold sensitivity displayed” value amounted to 4.

As to `Nc1nc2c(ncn2[C@@H]2O[C@H](COP(=O)(O)OP(=O)(O)OP(=O)(O)O)[C@@H](O)[C@H]2O)c(=O)[nH]1` [GTP], the “nH (positive cooperativity)” value in experiment [15] was 1.9.

For the compound `Nc1ncnc2c1ncn2[C@@H]1O[C@H](COP(=O)(O)OP(=O)(O)OP(=O)(O)O)[C@@H](O)[C@H]1O` [ATP], the “nH (positive cooperativity)” value in [15] was determined as 2.4.

As for actagardin, the “MIC, ΔbceAB-Δhk01-PcomX-hk01” value in experiment [5] turned out to be 4 µg/mL. The “MIC, ΔbceAB” value in experiment [6] worked out at 4 µg/mL. The “Minimum Inhibitory Concentration, Δtcs01” value in [7] and in experiment [2] was 2 µg/mL in each case. In addition, in experiment [8], the “MIC, Δhk01-PcomX-hk01” value is 32 µg/mL. For the same compound, in experiment [9], the “MIC, Δhk01” value worked out at 4 µg/mL. The “Minimum Inhibitory Concentration, ΔbceAB/tcs01” value in experiment [1] and in experiment [10] was 2 µg/mL in each case. Further, the “MIC, WT” value in experiment [11] is 32 µg/mL. Further, the “MIC, bceAB-gfp” value in experiment [12] came out at 32 µg/mL. Also, the “Minimum Inhibitory Concentration, ΔbceAB” value in [3] and in experiment [13] was 2 µg/mL throughout. For the same compound, the “Minimum Inhibitory Concentration, WT” value in experiment [4] and in experiment [14] was 32 µg/mL throughout. The “Fold sensitivity displayed” value in [4] is given as 16. In addition, the “Fold sensitivity diplayed by the KO strains” value in [14] is 16.
